Assay [1] addresses T1, AURKA (Homo sapiens, UniProt O14965).
T1 sequence (O14965 1-403): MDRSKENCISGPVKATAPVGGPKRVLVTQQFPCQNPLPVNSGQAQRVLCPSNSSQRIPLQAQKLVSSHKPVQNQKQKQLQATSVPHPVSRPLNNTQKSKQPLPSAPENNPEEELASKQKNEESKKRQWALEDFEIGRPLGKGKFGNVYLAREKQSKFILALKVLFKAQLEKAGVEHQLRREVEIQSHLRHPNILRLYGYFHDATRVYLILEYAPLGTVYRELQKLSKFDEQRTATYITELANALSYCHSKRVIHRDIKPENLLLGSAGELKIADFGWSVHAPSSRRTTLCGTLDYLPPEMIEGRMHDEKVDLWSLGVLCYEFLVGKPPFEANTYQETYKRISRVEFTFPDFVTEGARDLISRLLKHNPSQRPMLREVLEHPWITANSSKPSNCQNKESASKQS
Description: AURKA protein levels, Western blot in SH-SY5Y with ABCB1 knockdown. The assay is classed as cell-based. Details: endogenous in cells. Conditions: 1 μM, 24h. In general terms: A western blot detects proteins with antibodies after separation by electrophoresis.

The target of assay [2] is T1, AURKA. The assay is described as follows: LC-MS/MS proteome profiling. The format is cell-based. Details: endogenous in cells; host or cells: IMR-32; key to Significant (3h SK5527vs3h DMSO) FDR0 05 / Significant (24h SK5527vs24h DMSO) FDR0 05: +: Statistical significance for differential regulation was set to a false discovery rate (FDR) of < 0.05 and |log2FC| = 2. Here is the method:
IMR-32 cells were seeded in T-25 flasks at a density of 1.7 million cells/flask and treated the next day with DMSO (negative control), SK5527 (500 nM) or MK-5108 (500 nM) for 3 or 24 h (data for MK-5108 not discussed in this manuscript). Cell pellets were harvested at the respective time points, lysed, and the concentration of the obtained protein lysates measured as previously described. Details on further sample preparation, LC–MS/MS, and data analysis can be found in the Supporting Information. The LC–MS/MS proteomics data have been deposited to the ProteomeXchange Consortium via the PRIDE partner repository with the data set identifier PXD061539.
Supplementary Methods 1 – LC-MS/MS proteomics
From each sample, 100 µg of protein was isolated, the volumes were equalized with water and SDS and TEAB were added to a final concentration of 5% and 50 mM, respectively. Proteins were reduced and alkylated by addition of 10 mM Tris(2-carboxyethyl)phosphine hydrochloride and 40 mM chloroacetamide and incubation for 30 minutes at 25°C in the dark. Phosphoric acid was added to a final concentration of 1.2%, and samples were subsequently diluted 7-fold with binding buffer containing 90% methanol in 100 mM TEAB, pH 7.55. The samples were loaded on the 96-well S-Trap™ plate (Protifi), placed on top of a deepwell plate, and centrifuged for 2 min at 1,500 x g at RT. After protein binding, the S-trap™ plate was washed three times by adding 200 µl binding buffer and centrifugation for 2 min at 1,500 x g at RT. A new deepwell receiver plate was placed below the 96-well S-Trap™ plate and 50 mM TEAB containing trypsin (1/100, w/w) was added for digestion overnight at 37°C.
Using centrifugation for 2 min at 1,500 x g, peptides were eluted in three steps, first with 80 µl 50 mM TEAB, then with 80 µl 0.2% formic acid (FA) in water and finally with 80 µl 0.2% FA in water/acetonitrile (ACN) (50/50, v/v). Eluted peptides were dried completely by vacuum centrifugation.
Peptides were re-dissolved in 20 µl loading solvent A (0.1% trifluoroacetic acid in water/acetonitrile (ACN) (99.5:0.5, v/v)) of which 2 µl of sample was injected for LC-MS/MS analysis on an Ultimate 3000 ProFlow nanoLC system in-line connected to a Orbitrap Exploris 240 mass spectrometer (Thermo) equipped with pneu-Nimbus dual ion source (Phoenix S&T). Trapping was performed at 20 μl/min for 2 min in loading solvent A on a PepMap™ Neo Trap column (Thermo scientific, 300 μm internal diameter (I.D.), 5 μm beads). The peptides were separated on a 250 mm Odyssey Ultimate, 1.7µm C18, 75 µm inner diameter (Ionopticks) kept at a constant temperature of 45°C. Peptides were eluted by a gradient reaching 26,4 % MS solvent B (0.1% FA in acetonitrile) after 80 min, 44% MS solvent B at 95 min, 56% MS solvent B at 100min followed by a 5-minutes wash at 56% MS solvent B and re-equilibration with MS solvent A (0.1% FA in water). The flow rate was set to 250 nl/min. The mass spectrometer was operated in data-independent mode, automatically switching between MS and MS/MS acquisition. Full-scan MS spectra ranging from 375-1500 m/z with a normalized target value of 300%, a maximum fill time of 25 ms and a resolution at of 60,000 were followed by 30 quadrupole isolations with a precursor isolation width of 10 m/z for HCD fragmentation at an NCE of 30% after filling the trap at a normalized target value of 2000% for maximum injection time of 45 ms. MS2 spectra were acquired at a resolution of 15,000 with a scan range of 200-1800 m/z in the Orbitrap analyser without multiplexing. The isolation intervals were set from 400 – 900 m/z with a width of 10 m/z using window placement optimization. The polydimethylcyclosiloxane background ion at 445.120028 Da was used for internal calibration (lock mass) and QCloud has been used to control instrument longitudinal performance during the project.
Analysis of the mass spectrometry data was performed in DiaNN (version 1.9). Precursor false discovery rate was […]
set at 1%. […]

As to `O=C1CCC(N2C(=O)c3cccc(OCCOCCOCCOCCNC(=O)[C@]4(Cc5cccc(Nc6nccs6)n5)CC[C@@H](Oc5cccc(Cl)c5F)CC4)c3C2=O)C(=O)N1` (stereo partly shown) [SK2188, reference compound], the “AURKA degradation, ABCB1 knockdown compared to wild-type (in words)” value at AURKA [1] is given as “stronger AURKA degradation”.

As for `Cc1cc(Nc2ccc(F)c(CC3(C(=O)N4CCC(F)(CN5CCN(c6ccc(N7CCC(=O)NC7=O)cn6)CC5)CC4)CCN(Cc4cccc(Cl)c4F)CC3)n2)n[nH]1` [SK5527], on AURKA [2] (IMR-32, 3h), the “Significant (3h SK5527vs3h DMSO) FDR0 05” value is on record as “+” and the “logFC (3h SK5527vs3h DMSO)” value was -3.27. Further, at AURKA [2] (IMR-32, 24h), the “Significant (24h SK5527vs24h DMSO) FDR0 05” value is listed as “+” and the “logFC (24h SK5527vs24h DMSO)” value was -3.1. Besides, the “logFC AURKA” value on AURKA [2] (SK5527 vs DMSO (3h)) is recorded as -3.27. In addition, the “logFC AURKA” value on AURKA [2] (SK5527 vs DMSO (24h)) was -3.1.

These data come from article PMC12670405, “Second-Generation AURKA-Targeting PROTACs: Structural Optimization toward in Vivo Degradation in Neuroblastoma” (Journal of Medicinal Chemistry, 2025).
